Laboratory results: patent US20240301408A1, “MICRORNA 195 COMPOSITIONS AND METHODS FOR TREATING COGNITIVE IMPAIRMENT” (UNITED STATES GOVERNMENT AS REPRESENTED BY THE DEPARTMENT …, priority 2021, published 2024)
Entries after “also recorded” stand apart in the source; their conditions may differ.

Experiments:
exosomal miR-195-5p = assay: brain and serum exosomal miR-195-5p levels in mice treated with synj1-lowering agents; format: in vivo, mouse; conditions: for serum exosomal miR-195 levels: treated 5×FAD mice versus vehicle controls, N=6-8/group; for brain exosomal miR-195-5p levels: treated mice versus controls
Method: As disclosed herein, a study was performed to examine exosomal fractions of brain and serum samples of synj1 haploinsufficiency mice (ApoE3 synj1^+/− and ApoE4 synj1^+/−) as well as of mice treated with synj1-lowering agents (SynaptoCpd #9 and Cpd #6). Exosomes were purified using sucrose gradient fractionation methods and the purity of exosome fractions were evaluated by western blot analysis of exosomal protein markers such as ALIX, and uptake studies of fluorescence tagged exosomes by human iPSC-derived astrocyte cultures. […] In addition, serum exosomal miR-195-5p levels were positively correlated with brain exosomal miR-195-5p levels and cognitive performance (NOR preference index and Y maze SAP scores), and reversely correlated with brain insoluble pTau and synj1 protein levels in drug-treated mouse cohorts (FIG. 19C).

ApoE receptors = assay: miR-195 levels in ApoE-/- neurons treated with ApoE3-CM or ApoE4-CM in the presence of RAP; format: cell-based, mouse; conditions: N=3/group
Method: Mouse Neuronal and human iPSC culture. Primary cortical neurons were cultured (Zhu L et al., Proc Natl Acad Sci USA 2015, and Zhu L et al., J Biol Chem 2013) before being fixed and stained for confocal microscopy analysis (Zeiss LSM) (Berg I et al., Nat Protoc 2010). In some conditions, bovine serum albumin (BSA) or receptor-associated protein (RAP) was included in the cultured media (N=3/group). Alternatively, cultured neurons were transfected with adeno-associated virus 2 (AAV2)-containing miR-195-5p or miR-374 or scramble controls for 5 days before subjected to analysis. […]
Statistical analysis. […] Levels of miR-195-5p and miR-374 were normalized to U6 and RNU6B (internal controls) while synj1 mRNA normalized to GAPDH and 18s, and then expressed as Log2fold of changes when compared to controls. Levels of synj1, dyn1, pTau, Tau, and holoAPP were normalized to β-actin levels and expressed as a percentage of the control. Absolute Aβ42, Aβ40, pTau, Tau, and ApoE concentrations were quantitatively determined by ELISA and expressed as a percentage of the control. […] Pearson correlation coefficients were calculated to determine the linear relationship between the two variables. […]

| miR-195 levels (ApoE receptors; ApoE4 CM+RAP (ApoE4 CM+BSA −3.193±0.144)) | miR-195 levels (ApoE receptors; RAP in the presence of ApoE3-CM) | Compound | serum exosomal miR-195 levels (exosomal miR-195-5p) | brain exosomal miR-195-5p levels (exosomal miR-195-5p) |
| --- | --- | --- | --- | --- |
| – | – | COCCOC(=O)C1=C(C)NC(C)=C(C(=O)OC(C)C)C1c1ccc(C(F)(F)F)cc1 (stereo not drawn) [Cpd #6] | much higher; also recorded: significantly elevated | much higher |
| – | – | COCCOC(=O)C1=C(C)NC(C)=C(C(=O)OC(C)C)C1c1ccc(C(C)(C)C)cc1 (stereo not drawn) [Cpd #9] | much higher; also recorded: significantly elevated | much higher |
| −2.678±0.054 log2FC | −1.648±0.125 log2FC | RAP: ApoE-receptor associated protein, an inhibitor of ApoE receptors | – | – |
